Source: patent publication US9504676B2, “Molecules inhibiting a metabolic pathway involving the Syk protein tyrosine kinase and method for identifying said molecules” (CENTRE NATIONAL DE LA RECHERCHE SCIENTIFIQUE, priority 2008, dated 2016)
Like-named read-outs stand apart in the source and are kept apart here.

Assays:
RBL-2H3 cells = assay: cells; assay type: cell-based, rat; conditions: for IC50: Rattus norvegicus
Experimental: These 87 molecules were also tested in vitro to assess the ability thereof to inhibit RBL-2H3 cell degranulation (see table 1).
(§1) • 1) Chemical products and antibodies. A chemical bank of 3000 molecules (a varied subset) was acquired from ChemBridge, Inc. (San Diego, Calif.). Stocks of solutions of small molecules were prepared at a rate of 10 mM in DMSO (dimethylsulphoxide), except for C-13 (methyl 2-{5-[(3-benzyl-4-oxo-2-thioxo-1,3-thiazolidin-5-ylidene)methyl]-2-furyl}benzoate, ChemBridge ID No. 6197026) prepared in DMF (dimethylformamide). Unless specified otherwise, all the reagents were supplied by Sigma. Dinitrophenyl (DNP) hapten was acquired from Calbiochem. Sepharose GammaBind G and all the secondary antibodies were supplied by GE Health Amersham Biosciences. The anti-Syk, anti-Lyn, anti-Btk, anti-PLC-γ1, anti-PLC-γ2, anti-LAT, anti-SLP-76, anti-p38, anti-JNK, anti-Vav, anti-Akt1 and 9E10 antibodies conjugated with HRP were acquired from Santa Cruz Biotechnology. The anti-phospho-p44/42 MAP Kinase, anti-p44/42 MAP Kinase, anti-phospho-p38, anti-phospho-JNK, anti-phospho-Akt1 antibodies were acquired from Cell Signaling. The anti-phospho-LAT and anti-phospho-PLC-γ1 antibodies were supplied by Biosource and the anti-phospho-SLP-76 antibodies by BD Pharmingen. The 4G10 anti-phosphotyrosine monoclonal antibody was acquired from Upstate Biotechnology. • 2) ADA method: ELISA type high-speed molecule screening test, based on antibody displacement (WO 2005106481). The recombinant fusion protein GST:Syk 6-242^8 comprising the residues 6 to 242 of murine Syk tyrosine kinase protein illustrated in FIG. 8B (SEQ ID No. 4) was immobilised on an ELISA plate at a final concentration of 10 μg ml^−1. For the screening of the chemical molecule bank, the small molecules, diluted in PBS at a final concentration of 10 μM were added to the wells for one hour at ambient temperature, before adding the fragment scFv G4G11 at a final concentration of 100 nM for an additional hour. The binding of G4G11 with Syk was assessed by adding the 9E10 monoclonal antibody conjugated with HRP detecting the amino acid sequence EQKLISEEDLN of human c-myc protein located at the C-terminal end of the scFv fragment. To generate Syk mutants, targeted mutagenesis was used on GST:Syk 6-242 protein and the binding of G4G11 with the mutants was assessed in the presence of 5 μM of C-13. • 3) Cells, culture conditions and functional tests. Anti-DNP 2682-I mouse monoclonal antibody was used as the culture supernatant of hybridomas containing 1 μg/ml of IgE. Femoral bone marrow cells were sampled and cultured in Opti-MEM medium (Gibco) supplemented with 10% foetal calf serum and 4% X63 transfectant supernatant secreting murine IL-3. RBL-2H3 (ATCC) leukaemic rat basophil cells were maintained in a single-layer culture in RPMI 1640 medium supplemented with 10% foetal calf serum (Gibco). Measurements of β-hexosaminidase released by the RBL-2H3 cells were performed as described previously^7, except that, after 12-16 hours of incubation with anti-DNP IgE (0.5 μg/ml), the cells were incubated for 90 min at 37° C. in RPMI medium supplemented with the specified concentrations of C-13 or DMF (0.25%). The cells were stimulated for 45 min with DNP-BSA (50 ng ml^−1) or ionomycin (1.5 μM). The BMMC cells were incubated for one hour at 37° C. with anti-DNP IgE (100 ng/ml). They were then incubated with C-13 (3 μM) or DMF (0.3%) for 3 hours at 37° C., and stimulated with varied concentrations of DNP-BSA. The level of β-hexosaminidase released was measured 10 min later and the TNF-α titration was performed by means of a cytotoxicity test on L929 cells as described previously^10, 3 hours after stimulation. The results illustrated in FIG. 3 are representative of three independent experiments. • 4) Immunoprecipitations, in vitro kinase assays and immunodetection. […]

[1] = target: T1, murine Syk tyrosine kinase protein (GST:Syk 6-242) (Mus musculus, UniProt P48025); assay: ADA method: displacement of the binding of scFv G4G11 with Syk (ELISA); conditions: for inhibition at 10 µM: read-out: In vit. inhib.: mean inhibition % of the binding of scFv G4G11 with Syk in the ADA method
T1 construct: made in house
Source text: The term “percentage of inhibition” of the binding of an antibody or antibody fragment with Syk protein, particularly refers to the ratio […], where A consists of the intensity of a signal proportional to the quantity of an antibody or antibody fragment bound with Syk protein in the absence of a molecule according to the invention and B the intensity of the same signal in the presence of a molecule according to the invention under the same conditions. […] This test may be performed for example according to the protocol described in example 3-2) hereinafter.
The inventors developed the ADA (Antigen Displacement Assay) method to identify small molecules capable of displacing the association with scFv G4G11 with Syk. […] To understand the mode of action of C-13, the inventors firstly identified the binding site of G4G11 using the SPOT method^16. An epitope located on the N-terminal SH2 domain of Syk, comprising amino acids 65-74 and 100% preserved in mouse, rat and human sequences, was identified.
The ADA method was then applied to each of these […] molecules to measure the ability thereof to inhibit the binding of scFv G4G11 with Syk.
as §1, with “(Gibco).” for “(Gibco). Measurements of β-hexosaminidase released by the RBL-2H3 cells were performed as described previously^7, except that, after 12-16 hours of incubation with anti-DNP IgE (0.5 μg/ml), the cells were incubated for 90 min at 37° C. in RPMI medium supplemented with the specified concentrations of C-13 or DMF (0.25%). The cells were stimulated for 45 min with DNP-BSA (50 ng ml^−1) or ionomycin (1.5 μM). The BMMC cells were incubated for one hour at 37° C. with anti-DNP IgE (100 ng/ml). They were then incubated with C-13 (3 μM) or DMF (0.3%) for 3 hours at 37° C., and stimulated with varied concentrations of DNP-BSA. The level of β-hexosaminidase released was measured 10 min later and the TNF-α titration was performed by means of a cytotoxicity test on L929 cells as described previously^10, 3 hours after stimulation. The results illustrated in FIG. 3 are representative of three independent experiments. • 4) Immunoprecipitations, in vitro kinase assays and immunodetection.”

[2] = RBL-2H3 cells, read-out: Degran. IC50: concentration inhibiting mast cell degranulation by 50%
[3] = small molecules at 10 μM, scFv G4G11 100 nM

IC50 (RBL-2H3 cells; [2]) [µg/mL]	inhibition at 10 µM [1, 3] [%]	SMILES	other results
> 10	54	CCN(CC)CCN1C(=O)C(O)=C(C(=O)c2ccc(C)cc2)C1c1cc(OC)ccc1OC (centres unmarked) [Molecule 28, 1-[2-(diethylamino)ethyl]-5-(2,5-dimethoxyphenyl)-3-hydroxy-4-(4-methylbenzoyl)-1,5-dihydro-2H-pyrrol-2-one]	–
> 10	50	COc1ccc(C2C(C(=O)c3ccc(C)cc3)=C(O)C(=O)N2CCN2CCOCC2)c(OC)c1 (centres unmarked) [Molecule 34]	–
> 10	50	CCOC(=O)c1sc(N2C(=O)C(O)=C(C(=O)c3ccccc3)C2c2ccc(OC)cc2)nc1C (centres unmarked) [Molecule 37, ethyl 2-[3-benzoyl-4-hydroxy-2-(4-methoxyphenyl)-5-oxo-2,5-dihydro-1H-pyrrol-1-yl]-4-methyl-1,3-thiazole-5-carboxylate]	–
> 10	50	COc1ccc(C2C(C(=O)c3ccc(Cl)cc3)=C(O)C(=O)N2CCN2CCOCC2)cc1 (centres unmarked) [Molecule 39, 4-(4-chlorobenzoyl)-3-hydroxy-5-(4-methoxyphenyl)-1-[2-(4-morpholinyl)ethyl]-1,5-dihydro-2H-pyrrol-2-one]	–
> 10	49.5	Cc1ccc(C(=O)C(C)OC(=O)c2ccc3c(c2)C(=O)C(c2ccc(C)c(Cl)c2)C3=O)cc1 (centres unmarked) [Molecule 41]	–
> 10	49	COc1ccc(C)cc1NC(=O)CN(c1ccc(C)cc1)S(=O)(=O)c1ccc(OC)c(OC)c1 [Molecule 42]	–

The next lines start with the compound.

SMILES	IC50 (RBL-2H3 cells; [2]) [µg/mL]	inhibition at 10 µM [1, 3] [%]	other results
CC(C)c1ccc(C2C(C(=O)c3ccccc3)=C(O)C(=O)N2CCN2CCOCC2)cc1 (centres unmarked) [Molecule 26]	> 10	56.5	–
COc1ccc(C2C(C(=O)c3ccc(Cl)cc3)=C(O)C(=O)N2CCN2CCOCC2)cc1OC (centres unmarked) [Molecule 27, 4-(4-chlorobenzoyl)-5-(3,4-dimethoxyphenyl)-3-hydroxy-1-[2-(4-morpholinyl)ethyl]-1,5-dihydro-2H-pyrrol-2-one]	> 10	55	–
O=C(CCCN1C(=O)c2ccccc2C1=O)Nc1sc2c(c1C(=O)NCC1CCCO1)CCC2 (centres unmarked) [Molecule 30]	> 10	51	–
COc1ccc(C2C(C(=O)c3ccc(F)cc3)=C(O)C(=O)N2CCN2CCOCC2)cc1OC (centres unmarked) [Molecule 31, 5-(3,4-dimethoxyphenyl)-4-(4-fluorobenzoyl)-3-hydroxy-1-(2-(4-morpholinyl)ethyl]-1,5-dihydro-2H-pyrrol-2-one]	> 10	50	–
CN(C)S(=O)(=O)c1ccc(C(=O)C2=C(O)C(=O)N(CCN3CCOCC3)C2c2ccccc2)cc1 (centres unmarked) [Molecule 32, 4-({4-hydroxy-1-[2-(4-morpholinyl)ethyl]-5-oxo-2-phenyl-2,5-dihydro-1H-pyrrol-3-yl}carbonyl)-N,N-dimethylbenzenesulphonamide]	> 10	50	–
COc1ccc(C2C(C(=O)c3ccc(F)cc3)=C(O)C(=O)N2CCN2CCOCC2)c(OC)c1 (centres unmarked) [Molecule 33]	> 10	50	–
COc1ccc(C2C(C(=O)c3ccco3)=C(O)C(=O)N2CCN2CCOCC2)cc1OC (centres unmarked) [Molecule 35, 5-(3,4-dimethoxyphenyl)-4-(2-furoyl)-3-hydroxy-1-[2-(4-morpholinyl)ethyl]-1,5-dihydro-2H-pyrrol-2-one]	> 10	50	–
COc1ccc(C2C(C(=O)c3ccc(Cl)cc3)=C(O)C(=O)N2CCN2CCOCC2)cc1OC (centres unmarked) [Molecule 36, 4-(4-chlorobenzoyl)-5-(3,4-dimethoxyphenyl)-3-hydroxy-1-[2-(4-morpholinyl)ethyl]-1,5-dihydro-2H-pyrrol-2-one]	–	–	Degran. IC50: concentration inhibiting mast cell degranulation by 50% (RBL-2H3 cells; RBL-2H3 cells): >10 µg/mL; In vit. inhib.: mean inhibition % of the binding of scFv G4G11 with Syk in the ADA method [1, 3]: 50%
COc1ccc(C2C(C(=O)c3cccs3)=C(O)C(=O)N2CCN2CCOCC2)cc1OC (centres unmarked) [Molecule 38, 5-(3,4-dimethoxyphenyl)-3-hydroxy-1-[2-(4-morpholinyl)ethyl]-4-(2-thienylcarbonyl)-1,5-dihydro-2H-pyrrol-2-one]	> 10	50	–
Cc1cc(C)cc(N(CC(=O)N2CCN(Cc3ccccc3)CC2)S(=O)(=O)c2ccccc2)c1 [Molecule 40, N-[2-(4-benzyl-1-piperazinyl)-2-oxoethyl]-N-(3,5-dimethylphenyl)benzenesulphonamide]	–	–	IC50 (RBL-2H3 cells; RBL-2H3, read-out: Degran. IC50: concentration inhibiting mast cell degranulation by 50%): > 10 µg/mL; inhibition at 10 µM [1]: 49.5%
